Assays:
Assay in all cases: two-electrode voltage clamp, oocytes, concentration-response
Type in all cases: cell-based
[1] = biological target: T1, Xenopus tropicalis α4β2 nAChR, α4β2(FS) (Xenopus tropicalis, UniProt A0A8J0QAC2+A4IIS6)
T1 construct: gene chrna4; full-length single subunits in pCMV-SPORT6 (Dharmacon), cRNA co-injected in Xenopus laevis oocytes; stoichiometry unknown
Description: (§1) two-electrode voltage clamp, oocytes, concentration-response on Xenopus tropicalis α4β2 nAChR, α4β2(FS)

[2] = biological target: T2, Xenopus tropicalis α4β2 nAChR, α4β2(FS) (Xenopus tropicalis, UniProt A0A8J0QAC2+A4IIS6, A4IIS6:S133C)
T2 construct: gene chrna4; full-length single subunits in pCMV-SPORT6 (Dharmacon), cRNA co-injected in Xenopus laevis oocytes; stoichiometry unknown
Description: as §1

[3] = biological target: T3, Xenopus tropicalis α4β2 nAChR, α4β2(FS) (Xenopus tropicalis, UniProt A0A8J0QAC2+A4IIS6, A4IIS6:F131L/A4IIS6:S133C)
T3 construct: gene chrna4; full-length single subunits in pCMV-SPORT6 (Dharmacon), cRNA co-injected in Xenopus laevis oocytes; stoichiometry unknown
Description: as §1

[4] = test system: T4, Nanorana parkeri α4β2 nAChR, α4β2(FS); conditions: agonist; α4:β2 cRNA ratio 1:3; -70 mV; Ba-ND96 with 1 µM atropine; room temperature; high-sensitivity site of biphasic fit, 95% CI
T4 construct: full-length single subunits, codon-optimized synthetic DNA in pGEMHE, cRNA co-injected in Xenopus laevis oocytes; behaves as 3α:2β (conjecture)
Description: two-electrode voltage clamp, oocytes, concentration-response on Nanorana parkeri α4β2 nAChR, α4β2(FS)

Structure (SMILES): CC(=O)OCC[N+](C)(C)C [acetylcholine]
- EC50 [1]: 47 nM
- EC50 [2]: 18 nM
- EC50 [3]: 21 nM
- EC50 [4]: 290 nM
